# Reference: PubChem BioAssay AID624462 (National Center for Advancing Translational Sciences (NCATS), 2012)
# Test system: PBS pH 7.4 kinetic solubility, LC-UV/MS
# Experiment: qHTS for Inhibitors of mutant isocitrate dehydrogenase 1 (IDH1): Aqueous Kinetic Solubility
# Settings: hits give high values
# Text: Malignant glioblastomas (WHO grade IV), including primary and secondary glioblastomas, are among the most lethal with a median survival of one year, and unfortunately they are also the most prevalent type of brain tumors. By and large the standard of care of gliomas remains the use of the oral alkylating agent temozolomide and radiotherapy following surgical tumor resection. There is an urgent unmet medical need for novel therapeutics for gliomas. IDH mutations occur in up to 70% of grade II-IV secondary glioblastomas, and IDH1 R132H is the most prevalent mutation. […] Wild-type (WT) IDH1 catalyzes the conversion of isocitrate to a-ketoglutarate with the concomitant reduction of NADP+ to NADPH. In contrast, IDH1 R132H catalyzes the conversion of a-ketoglutarate to 2-hydroxyglutarate (2-HG) with the concomitant oxidation of NADPH to NADP+ [5]. Recently, a second significant advancement for the field was the finding that IDH is an oncogene, and that its metabolic product 2-HG may contribute to the pathogenesis of IDH-mutated cancers. […] Although this link to cancer is tantalizing, the direct evidence of how 2-HG drives pathogenesis of gliomas and AML remains a subject of further research. This bioassays provides profiling data on aqueous kinetic solubility (PBS @ pH7.4) of the IDH probe. […]
# 1. […] Concentration of the supernatant was determined by LC-UV or LC-MS/MS
smiles,measurement,value
Cc1ccccc1C(C(=O)NC1CCCC1)N(C(=O)Cn1cnc2ccccc21)c1cccc(F)c1 (stereo unspecified),solubility,54.3 µM
